Series [1] deals with Human immunodeficiency virus. Briefly: Antiviral activity against HIV infected in human CEM cells assessed as inhibition of virus induced cytopathicity incubated for 4 days by microscopic analysis. The format is functional, organism-based. Conditions: ccrf-cem.
The subject of series [2] is Moloney murine sarcoma virus. Briefly: Antiviral activity against Moloney murine sarcoma virus infected in murine C3H/3T3 embryo fibroblasts assessed as inhibition of virus-induced transformation incubated for 6 days by microscopic analysis. The format is functional, organism-based.
The test system of series [3] is Cytomegalovirus. The series can be described thus: Antiviral activity against Cytomegalovirus AD169 infected in human HEL cells assessed as reduction in virus-induced cytopathogenicity measured after 6 to 7 days. Conditions: Human betaherpesvirus 5, AD169, HEL. It counts as functional, organism-based.
Series [4] deals with Cytomegalovirus. The series can be described thus: Antiviral activity against Cytomegalovirus Davis infected in human HEL cells assessed as reduction in virus-induced cytopathogenicity measured after 6 to 7 days. The format is functional, organism-based. The settings on record: Human betaherpesvirus 5, Davis.
Series [5] concerns Human alphaherpesvirus 3. Briefly: Antiviral activity against thymidine kinase positive Varicella zoster virus OKA infected in human HEL cells assessed as reduction in plaque formation measured after 5 days. The settings on record: Human alphaherpesvirus 3, OKA, 120 h. The format is functional, organism-based.
Series [6] deals with Human alphaherpesvirus 3. The series can be described thus: Antiviral activity against thymidine kinase deficient Varicella zoster virus 07-1 infected in human HEL cells assessed as reduction in plaque formation measured after 5 days. It counts as functional, organism-based. Conditions: Human alphaherpesvirus 3, 07-1, HEL, 120 h.
The nature of series [7]: Cytotoxicity against human HEL cells assessed as minimum cytotoxic concentration for change in cellular morphology incubated for 3 days by microscopic analysis. It counts as cell-based.
A short description of series [8]: Cytotoxicity against human HEL cells assessed as reduction in cell proliferation incubated for 3 days by Coulter counter method. It counts as cell-based.
For a further series, the system named is Hepatitis B virus. The series can be described thus: Antiviral activity against Hepatitis B virus ayw1 infected in human HepG2.2.15 cells assessed as reduction in virus DNA replication measured after 6 days by qRT-PCR analysis. The format is functional, organism-based. Conditions: ayw1, HepG2 2.2.15, 144 h.
A short description of series [9]: Selectivity index, ratio of CC50 for human HEL cells to EC50 for antiviral activity against Cytomegalovirus AD169 infected in human HEL cells. It counts as toxicity, cell-based. Conditions: read-out: Ratio CC50/EC50.
A short description of series [10]: Selectivity index, ratio of CC50 for human HEL cells to EC50 for antiviral activity against Cytomegalovirus Davis infected in human HEL cells. It counts as toxicity, cell-based. Conditions: read-out: Ratio CC50/EC50.
Series [11] in a line: Selectivity index, ratio of CC50 for human HEL cells to EC50 for antiviral activity against thymidine kinase positive Varicella zoster virus OKA infected in human HEL cells. It counts as toxicity, cell-based. Conditions: read-out: Ratio CC50/EC50.
Series [12] can be described thus: Selectivity index, ratio of CC50 for human HEL cells to EC50 for antiviral activity against thymidine kinase deficient Varicella zoster virus 07-1 infected in human HEL cells. The format is toxicity, cell-based. The settings on record: read-out: Ratio CC50/EC50.

A value given as a limit tells only on which side of the number the result lay.

For `Cc1c(N)nc(N)nc1OCCOCP(=O)(O)O`, the EC50 in [1] and in series [2] was 0.16 to 0.43 µM in each case.

Consider `CCCCOC(=O)[C@@H](NP(=O)(COC(C)COc1nccc(N)n1)Oc1ccccc1)C(C)C` (some centres undefined), for which the EC50 in the series with Cytomegalovirus [3], in the series on Cytomegalovirus [4], with Human alphaherpesvirus 3 [5] and in the series with Human alphaherpesvirus 3 [6] was greater than 100 µM throughout. In addition, the MCC at 72 h in series [7] is greater than 100 µM.

Regarding `Nc1ccnc(OC[C@H](CF)OCP(=O)(O)O)n1`, the half-maximal effective concentration (EC50) with Cytomegalovirus [3] was determined as 2.36 µM; with Cytomegalovirus [4] it was 0.8 µM; in the series on Human alphaherpesvirus 3 [5], 3.79 µM; with Human alphaherpesvirus 3 [6] it was 25.3 µM. Further, the MCC at 72 h in [7] was greater than 100 µM. Further, in series [8], the half-maximal cytotoxic concentration (CC50) at 72 h is greater than 100 µM.

On to `CCCCCOC(=O)[C@@H](NP(=O)(CO[C@H](CF)COc1nccc(N)n1)Oc1ccccc1)C(C)C` (mixture of isomers), for which the half-maximal effective concentration (EC50) in the series with Cytomegalovirus [3] is greater than 100 µM; in the series with Cytomegalovirus [4] it was 7.61 µM; in the series with Human alphaherpesvirus 3 [5], 38.6 µM; with Human alphaherpesvirus 3 [6], 35.9 µM. Moreover, in [7], the MCC at 72 h is greater than 100 µM.

For `Nc1ccnc(OC[C@@H](CF)OCP(=O)(O)O)n1` (mixture of isomers), the EC50 in the series on Cytomegalovirus [3], in the series with Cytomegalovirus [4], in the series on Human alphaherpesvirus 3 [5] and in the series on Human alphaherpesvirus 3 [6] was greater than 100 µM each time. In addition, the MCC at 72 h in [7] is greater than 100 µM. For the same compound, in [8], the CC50 at 72 h is greater than 100 µM.

As to `CCCCCOC(=O)[C@@H](NP(=O)(CO[C@@H](C)COc1ncc(F)c(N)n1)Oc1ccccc1)C(C)C` (mixture of isomers), the 50% effective concentration (EC50) with Cytomegalovirus [3], in the series with Cytomegalovirus [4], in the series on Human alphaherpesvirus 3 [5] and in the series on Human alphaherpesvirus 3 [6] was greater than 100 µM each time. For the same compound, in [7], the MCC at 72 h is greater than 100 µM.

Consider `CCCCCOC(=O)[C@@H](NP1(=O)CO[C@@H](COc2nccc(N)n2)CO1)C(C)C` (mixture of isomers), for which the EC50 in the series with Cytomegalovirus [3], in the series on Cytomegalovirus [4], in the series on Human alphaherpesvirus 3 [5] and in the series with Human alphaherpesvirus 3 [6] was greater than 100 µM in each case. Besides, the MCC at 72 h in series [7] was greater than 100 µM.

As to `CCCCCOC(=O)[C@@H](NP(=O)(CO[C@@H](CF)COc1nccc(N)n1)Oc1ccccc1)C(C)C` (mixture of isomers), the EC50 with Cytomegalovirus [3] is 0.26 µM; in the series on Cytomegalovirus [4], 0.097 µM; with Human alphaherpesvirus 3 [5] it was 0.36 µM; with Human alphaherpesvirus 3 [6] it was 0.18 µM; in the series on Hepatitis B virus, 2.1 to 8.71 µM. Besides, in series [7], the MCC at 72 h is greater than 100 µM. Also, the CC50 at 72 h in series [8] turned out to be 79.3 µM. For the same compound, the selectivity ratio in [9], in series [10], in [11] and in series [12] was 220 to 818 each time.

On to `CCCCCOC(=O)C[C@H](NP(=O)(CO[C@@H](CF)COc1nccc(N)n1)Oc1ccccc1)C(=O)OCCCCC` (mixture of isomers), for which the half-maximal effective concentration (EC50) was 0.54 µM in the series on Cytomegalovirus [3]; 0.094 µM in the series with Cytomegalovirus [4]; 0.36 µM with Human alphaherpesvirus 3 [5]; 0.098 µM in the series on Human alphaherpesvirus 3 [6]; 2.1 to 8.71 µM in the series on Hepatitis B virus. For the same compound, the MCC at 72 h in series [7] is greater than 100 µM. Also, in series [8], the CC50 at 72 h worked out at 51.8 µM. The selectivity ratio in [9], in series [10], in [11] and in [12] was 96 to 551 throughout.

Regarding `CCCCCOC(=O)[C@@H](NP(=O)(CO[C@H](C)COc1ncc(F)c(N)n1)Oc1ccccc1)C(C)C` (mixture of isomers), the concentration giving a half-maximal response (EC50) with Cytomegalovirus [3], in the series with Cytomegalovirus [4], in the series with Human alphaherpesvirus 3 [5] and in the series with Human alphaherpesvirus 3 [6] was greater than 100 µM throughout. In series [7], the MCC at 72 h is greater than 100 µM.

Regarding `CCCCCOC(=O)[C@@H](NP(=O)(CO[C@@H](CF)COc1ncc(F)c(N)n1)Oc1ccccc1)C(C)C` (mixture of isomers), the concentration giving a half-maximal response (EC50) was 11.2 µM with Cytomegalovirus [3]; 4.7 µM with Cytomegalovirus [4]; 6.73 µM in the series on Human alphaherpesvirus 3 [5]; 2.94 µM in the series on Human alphaherpesvirus 3 [6]; 2.1 to 8.71 µM with Hepatitis B virus. The MCC at 72 h in [7] was greater than 100 µM. For the same compound, the 50% cytotoxic concentration (CC50) at 72 h in series [8] is greater than 100 µM.

For `CCCCCOC(=O)[C@@H](NP1(=O)CO[C@H](COc2nccc(N)n2)CO1)C(C)C` (mixture of isomers), the EC50 with Cytomegalovirus [3] was 14 µM; with Cytomegalovirus [4], 4.76 µM; with Human alphaherpesvirus 3 [5], 53.6 µM; in the series with Human alphaherpesvirus 3 [6] it was 35.7 µM. For the same compound, in series [7], the MCC at 72 h is greater than 100 µM. Moreover, the 50% cytotoxic concentration (CC50) at 72 h in series [8] was greater than 100 µM.

`CCCCCOC(=O)C[C@H](NP(=O)(CO[C@H](CF)COc1nccc(N)n1)Oc1ccccc1)C(=O)OCCCCC` (mixture of isomers): the EC50 with Cytomegalovirus [3] came out at 62.8 µM; in the series on Cytomegalovirus [4] it was 48.2 µM; in the series with Human alphaherpesvirus 3 [5], 38.2 µM; with Human alphaherpesvirus 3 [6], 24.7 µM. Further, in [7], the MCC at 72 h is greater than 100 µM. The CC50 at 72 h in series [8] was greater than 100 µM.

For `CCCCCOC(=O)[C@@H](NP(=O)(CO[C@H](C)COc1nccc(N)n1)Oc1ccccc1)C(C)C` (mixture of isomers), the concentration giving a half-maximal response (EC50) with Cytomegalovirus [3], with Cytomegalovirus [4], in the series on Human alphaherpesvirus 3 [5] and in the series with Human alphaherpesvirus 3 [6] was greater than 100 µM throughout. In [7], the MCC at 72 h is greater than 100 µM.

As for `CCCCCOC(=O)[C@@H](NP1(=O)CO[C@H](COc2ncc(F)c(N)n2)CO1)C(C)C` (mixture of isomers), the EC50 with Cytomegalovirus [3], with Cytomegalovirus [4], with Human alphaherpesvirus 3 [5] and in the series with Human alphaherpesvirus 3 [6] was greater than 100 µM throughout. Besides, the MCC at 72 h in series [7] is greater than 100 µM.

As for `CCCCCOC(=O)[C@@H](NP(=O)(CO[C@@H](C)COc1nccc(N)n1)Oc1ccccc1)C(C)C` (mixture of isomers), the concentration giving a half-maximal response (EC50) in the series with Cytomegalovirus [3], in the series with Cytomegalovirus [4], in the series on Human alphaherpesvirus 3 [5] and in the series on Human alphaherpesvirus 3 [6] was greater than 100 µM each time. Besides, the MCC at 72 h in series [7] is greater than 100 µM.

For the compound `CCCCCOC(=O)[C@@H](NP(=O)(CO[C@H](CF)COc1ncc(F)c(N)n1)Oc1ccccc1)C(C)C` (mixture of isomers), the EC50 with Cytomegalovirus [3], with Cytomegalovirus [4], in the series on Human alphaherpesvirus 3 [5] and in the series on Human alphaherpesvirus 3 [6] was greater than 100 µM in each case. In addition, the MCC at 72 h in series [7] is greater than 100 µM.

For `CCCCCOC(=O)[C@@H](NP1(=O)CO[C@@H](COc2ncc(F)c(N)n2)CO1)C(C)C` (mixture of isomers), the EC50 in the series on Cytomegalovirus [3], in the series with Cytomegalovirus [4], in the series on Human alphaherpesvirus 3 [5] and with Human alphaherpesvirus 3 [6] was greater than 100 µM throughout. Moreover, the MCC at 72 h in [7] was greater than 100 µM.

As for `Nc1nc2c(ncn2COCCO)c(=O)[nH]1` [ACYCLOVIR], in series [7], the MCC at 72 h is greater than 444 µM. Besides, in series [8], the CC50 at 72 h is greater than 444 µM.

Consider `O=c1[nH]c(=O)n([C@H]2C[C@H](O)[C@@H](CO)O2)cc1/C=C/Br` [BRIVUDINE], for which the concentration for a half-maximal effect (EC50) turned out to be 0.089 µM with Human alphaherpesvirus 3 [5] and 0.18 µM in the series with Human alphaherpesvirus 3 [6]. Besides, in series [7], the MCC at 72 h was greater than 300 µM. Moreover, the cytotoxic concentration (CC50) at 72 h in series [8] was greater than 300 µM.

On to `Nc1ccn(C[C@@H](CO)OCP(=O)(O)O)c(=O)n1` [CIDOFOVIR], for which the 50% effective concentration (EC50) was 1.74 µM in the series on Cytomegalovirus [3] and 0.94 µM in the series on Cytomegalovirus [4]. Moreover, the MCC at 72 h in [7] was greater than 317 µM. Moreover, the cytotoxic concentration (CC50) at 72 h in series [8] was greater than 317 µM.

Consider `Nc1nc2c(ncn2COC(CO)CO)c(=O)[nH]1` [GANCICLOVIR], for which the half-maximal effective concentration (EC50) with Cytomegalovirus [3] was determined as 13 µM; in the series on Cytomegalovirus [4] it was 4.44 µM. Moreover, in series [7], the MCC at 72 h was greater than 394 µM. Besides, the cytotoxic concentration (CC50) at 72 h in series [8] was greater than 394 µM.

For the origin of these results see ChEMBL document CHEMBL4619792, “Amidate Prodrugs of O-2-Alkylated Pyrimidine Acyclic Nucleosides Display Potent Anti-Herpesvirus Activity” (ACS Med Chem Lett, 2020).
